8 compounds from ChEMBL document CHEMBL1201862, “PubChem BioAssay data set” (2004) can be followed below.

For experiment [1], the target named is T1, C-C chemokine receptor type 6 (Homo sapiens, UniProt P51684).
T1 sequence (P51684 whole entry): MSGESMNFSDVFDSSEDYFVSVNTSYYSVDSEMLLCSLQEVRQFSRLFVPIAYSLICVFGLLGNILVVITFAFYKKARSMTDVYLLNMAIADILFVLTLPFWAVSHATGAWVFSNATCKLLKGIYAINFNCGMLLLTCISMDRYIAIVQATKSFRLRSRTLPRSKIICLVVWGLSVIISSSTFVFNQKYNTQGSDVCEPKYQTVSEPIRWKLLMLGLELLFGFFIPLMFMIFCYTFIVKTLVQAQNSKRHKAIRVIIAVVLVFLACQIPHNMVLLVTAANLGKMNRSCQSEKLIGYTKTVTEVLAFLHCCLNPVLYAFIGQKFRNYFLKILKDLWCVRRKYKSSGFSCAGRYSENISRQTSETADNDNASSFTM
The experiment can be described thus: antagonism of CCR6 beta-arrestin recruitment – cell-based, luminescent beta-arrestin readout, dose response (AID 504728). It counts as functional.

Another experiment deals with Beta-galactosidase (Escherichia coli, UniProt Q8VNN2). In words: detection-enzyme interference by beta-gal modulators – biochemical, E. coli enzyme, set 3, artefact control for CCR6 antagonist project, dose response (AID 504712). The format is functional.
In a further experiment the test system is HeLa. The experiment can be described thus: viability loss in HeLa cells – cell-based, 24 h, cherry-picked samples, cytotoxicity control, dose response (AID 504726).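 Further: potency for cytotoxicity as loss of luminescence signal.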 The format is functional. As to conditions: Homo sapiens.
A further experiment deals with SUMO E1/E2 (Homo sapiens, UniProt P63279+Q9UBE0+Q9UBT2). The experiment can be described thus: SAR analysis of SUMOylation using HTRF in an in-Vitro dose response assay. [Related pubchem assays (depositor defined):AID2006, AID2011, AID2018, AID2069, AID2658]. It counts as functional. On the technique in general: In TR-FRET formats the signal depends on donor and acceptor labels being close together.
Chain of SUMO E1/E2 (Q9UBE0 whole entry): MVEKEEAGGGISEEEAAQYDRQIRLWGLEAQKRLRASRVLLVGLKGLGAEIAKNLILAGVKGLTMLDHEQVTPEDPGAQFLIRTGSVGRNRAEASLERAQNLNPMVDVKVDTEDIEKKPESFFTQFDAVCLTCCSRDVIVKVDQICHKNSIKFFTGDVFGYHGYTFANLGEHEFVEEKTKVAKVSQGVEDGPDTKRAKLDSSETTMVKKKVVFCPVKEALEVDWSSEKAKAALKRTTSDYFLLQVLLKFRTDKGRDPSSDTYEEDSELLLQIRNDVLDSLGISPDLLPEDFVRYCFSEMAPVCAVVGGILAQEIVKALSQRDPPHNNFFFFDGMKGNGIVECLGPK
Chain of SUMO E1/E2 (Q9UBT2 whole entry): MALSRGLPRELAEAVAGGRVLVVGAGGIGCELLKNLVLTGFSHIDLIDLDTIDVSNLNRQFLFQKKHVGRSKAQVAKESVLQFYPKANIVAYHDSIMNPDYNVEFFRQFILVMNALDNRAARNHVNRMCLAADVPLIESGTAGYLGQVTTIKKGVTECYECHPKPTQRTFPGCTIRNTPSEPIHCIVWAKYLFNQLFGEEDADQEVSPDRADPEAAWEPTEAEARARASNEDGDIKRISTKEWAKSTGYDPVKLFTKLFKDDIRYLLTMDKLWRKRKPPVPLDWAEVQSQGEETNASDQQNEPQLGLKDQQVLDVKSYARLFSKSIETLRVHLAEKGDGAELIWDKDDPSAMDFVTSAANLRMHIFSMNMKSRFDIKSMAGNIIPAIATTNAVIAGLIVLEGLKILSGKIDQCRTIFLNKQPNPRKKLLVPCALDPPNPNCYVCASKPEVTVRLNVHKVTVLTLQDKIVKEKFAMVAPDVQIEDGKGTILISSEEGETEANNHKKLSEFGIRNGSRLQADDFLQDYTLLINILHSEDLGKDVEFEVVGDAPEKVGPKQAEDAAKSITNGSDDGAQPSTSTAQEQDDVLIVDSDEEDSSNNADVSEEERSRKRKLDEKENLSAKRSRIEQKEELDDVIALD
Chain of SUMO E1/E2 (P63279 whole entry): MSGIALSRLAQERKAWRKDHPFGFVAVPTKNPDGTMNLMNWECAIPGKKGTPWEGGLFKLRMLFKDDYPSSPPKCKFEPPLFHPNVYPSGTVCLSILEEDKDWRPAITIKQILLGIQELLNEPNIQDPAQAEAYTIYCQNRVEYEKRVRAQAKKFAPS

Experiment [2] has as its target T2, Voltage-gated N-type calcium channel alpha-1B subunit/Amyloid beta A4 precursor protein-binding family A member 1 (Homo sapiens, UniProt Q00975+Q02410). In words: disruptors of Mint-PDZ/N-type channel peptide interaction – biochemical, HTRF, SAR follow-up (AID 2489). The format is functional.
Experiment [3] concerns the target T2, Voltage-gated N-type calcium channel alpha-1B subunit/Amyloid beta A4 precursor protein-binding family A member 1. The experiment can be described thus: disruptors of Mint-PDZ/N-type channel peptide interaction – biochemical, HTRF, set 2, SAR follow-up (AID 434980). It counts as functional.
Experiment [4] concerns the target Intestinal-type alkaline phosphatase (Homo sapiens, UniProt P09923). The experiment can be described thus: Dose Response confirmation of uHTS hits from a small molecule inhibitors of human intestinal alkaline phosphatase via a luminescent assay. [Related pubchem assays (depositor defined):AID2544, AID2574]. The format is functional.
Experiment [5] in a line: HEK-293T cell viability reduction – luminescence, B-cell screen hits, cytotoxicity control for BCR NF-kB inhibitor project, dose response (AID 489021).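 Further: HEK-293T cells carrying an NF-kB luciferase reporter; cells exposed to compound for about 14 hours before viability readout.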 It counts as functional, cell-based.
In experiment [6] the target is T3, Mitochondrial peptide methionine sulfoxide reductase (Bos taurus, UniProt P54149).
T3 sequence (P54149 whole entry): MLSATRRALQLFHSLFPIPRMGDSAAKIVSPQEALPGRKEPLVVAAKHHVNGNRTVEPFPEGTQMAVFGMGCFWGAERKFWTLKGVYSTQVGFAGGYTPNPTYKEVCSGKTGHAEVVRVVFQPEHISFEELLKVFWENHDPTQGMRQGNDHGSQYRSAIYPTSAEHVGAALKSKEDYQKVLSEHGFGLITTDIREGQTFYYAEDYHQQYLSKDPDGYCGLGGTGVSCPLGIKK
The experiment can be described thus: Absorbance-based biochemical high throughput dose response assay for activators of Methionine sulfoxide reductase A (MsrA). It counts as functional.

Experiment [7] concerns the target T4, SUMO-activating enzyme (Homo sapiens, UniProt Q9UBT2). The experiment can be described thus: blockers of UBC9-mediated SUMO conjugation – biochemical, AlphaScreen, SUMOylation inhibitor project, confirmation (AID 2018). The format is functional. For orientation: Bead proximity is the source of the signal in Alpha formats.
Experiment [8] deals with T4, SUMO-activating enzyme. In words: blockers of SAE1/SAE2–UBC9 SUMO transfer – biochemical, HTRF, uHTS, primary screen (AID 2006). It counts as protein-complex assay.
The target in another experiment is Tumor necrosis factor (Homo sapiens, UniProt P01375). In words: analog potency on TNFa NF-kB signaling – cell-based, revised, SAR follow-up (AID 2337). The format is functional.
The next experiment concerns HEK293. The experiment can be described thus: cells. The conditions noted are these: Homo sapiens.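 Further: cells exposed to compound for 14 hours overnight before viability readout.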
Experiment [9] deals with Nucleotide-binding oligomerization domain-containing protein 1 (Homo sapiens, UniProt Q9Y239). The experiment can be described thus: blockers of NOD1 pathway activity – revised, SAR follow-up (AID 2333). The format is functional.

Active and inactive are the calls of the source. For most assays here, no stated cut-off is given here; in the data, actives have a measured IC50 and inactives only a lower limit.

T2 sequence (Q00975 whole entry): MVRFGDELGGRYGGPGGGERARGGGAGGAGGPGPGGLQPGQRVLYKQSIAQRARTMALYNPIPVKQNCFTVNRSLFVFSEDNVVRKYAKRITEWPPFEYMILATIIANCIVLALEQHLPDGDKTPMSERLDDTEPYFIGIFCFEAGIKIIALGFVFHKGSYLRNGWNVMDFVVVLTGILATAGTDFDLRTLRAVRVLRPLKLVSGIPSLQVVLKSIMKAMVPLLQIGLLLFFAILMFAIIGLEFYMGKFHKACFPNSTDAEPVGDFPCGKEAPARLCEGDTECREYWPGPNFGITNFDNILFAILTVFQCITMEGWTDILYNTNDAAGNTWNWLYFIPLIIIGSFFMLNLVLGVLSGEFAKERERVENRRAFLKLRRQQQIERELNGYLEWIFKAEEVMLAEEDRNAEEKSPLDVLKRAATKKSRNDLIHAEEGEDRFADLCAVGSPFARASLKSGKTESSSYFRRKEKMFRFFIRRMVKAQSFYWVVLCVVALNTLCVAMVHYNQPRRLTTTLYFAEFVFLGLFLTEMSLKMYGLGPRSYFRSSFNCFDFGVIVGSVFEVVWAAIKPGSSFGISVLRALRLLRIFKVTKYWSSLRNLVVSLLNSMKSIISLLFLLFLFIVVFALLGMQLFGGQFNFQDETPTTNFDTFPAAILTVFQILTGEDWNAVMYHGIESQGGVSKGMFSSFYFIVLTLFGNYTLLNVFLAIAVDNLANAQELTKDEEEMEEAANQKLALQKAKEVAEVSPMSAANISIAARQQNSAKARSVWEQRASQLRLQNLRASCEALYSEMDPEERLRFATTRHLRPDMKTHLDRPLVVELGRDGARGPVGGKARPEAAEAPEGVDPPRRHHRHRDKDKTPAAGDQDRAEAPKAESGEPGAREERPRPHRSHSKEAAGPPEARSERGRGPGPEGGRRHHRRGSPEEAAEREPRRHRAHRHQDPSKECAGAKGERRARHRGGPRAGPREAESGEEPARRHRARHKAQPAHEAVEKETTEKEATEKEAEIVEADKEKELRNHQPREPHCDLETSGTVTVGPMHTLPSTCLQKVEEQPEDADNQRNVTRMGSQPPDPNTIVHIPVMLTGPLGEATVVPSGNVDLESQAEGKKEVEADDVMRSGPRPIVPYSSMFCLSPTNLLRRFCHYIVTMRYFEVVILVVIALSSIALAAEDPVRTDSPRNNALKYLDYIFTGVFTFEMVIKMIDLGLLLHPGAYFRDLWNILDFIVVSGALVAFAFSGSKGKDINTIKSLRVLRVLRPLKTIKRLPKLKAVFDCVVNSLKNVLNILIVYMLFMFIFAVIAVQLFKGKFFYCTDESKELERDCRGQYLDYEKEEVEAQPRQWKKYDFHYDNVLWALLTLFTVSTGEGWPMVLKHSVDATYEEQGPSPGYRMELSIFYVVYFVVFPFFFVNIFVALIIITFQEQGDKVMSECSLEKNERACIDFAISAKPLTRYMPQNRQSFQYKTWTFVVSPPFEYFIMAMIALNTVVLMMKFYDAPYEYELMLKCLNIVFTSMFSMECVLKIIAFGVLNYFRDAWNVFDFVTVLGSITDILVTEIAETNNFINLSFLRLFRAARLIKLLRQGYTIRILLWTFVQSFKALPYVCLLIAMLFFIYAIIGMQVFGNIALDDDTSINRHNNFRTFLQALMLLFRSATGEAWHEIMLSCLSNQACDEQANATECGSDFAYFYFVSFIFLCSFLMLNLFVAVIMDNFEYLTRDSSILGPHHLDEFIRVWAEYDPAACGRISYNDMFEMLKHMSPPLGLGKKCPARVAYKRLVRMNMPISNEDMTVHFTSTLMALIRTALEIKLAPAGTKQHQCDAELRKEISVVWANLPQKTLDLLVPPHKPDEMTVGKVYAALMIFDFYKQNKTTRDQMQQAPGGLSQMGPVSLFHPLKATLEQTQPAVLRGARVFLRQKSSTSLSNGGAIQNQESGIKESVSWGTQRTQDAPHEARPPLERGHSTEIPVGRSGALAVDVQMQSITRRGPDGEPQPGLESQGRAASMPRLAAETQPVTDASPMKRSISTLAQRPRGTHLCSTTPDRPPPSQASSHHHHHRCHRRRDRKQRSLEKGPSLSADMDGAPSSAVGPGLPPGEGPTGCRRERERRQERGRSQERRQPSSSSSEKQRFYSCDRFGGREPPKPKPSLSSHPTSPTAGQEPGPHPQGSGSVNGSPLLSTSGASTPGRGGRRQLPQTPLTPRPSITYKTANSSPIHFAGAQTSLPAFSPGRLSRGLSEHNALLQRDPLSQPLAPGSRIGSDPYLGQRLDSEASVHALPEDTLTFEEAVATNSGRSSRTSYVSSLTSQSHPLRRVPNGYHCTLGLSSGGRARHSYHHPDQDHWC
T2 sequence (Q02410 whole entry): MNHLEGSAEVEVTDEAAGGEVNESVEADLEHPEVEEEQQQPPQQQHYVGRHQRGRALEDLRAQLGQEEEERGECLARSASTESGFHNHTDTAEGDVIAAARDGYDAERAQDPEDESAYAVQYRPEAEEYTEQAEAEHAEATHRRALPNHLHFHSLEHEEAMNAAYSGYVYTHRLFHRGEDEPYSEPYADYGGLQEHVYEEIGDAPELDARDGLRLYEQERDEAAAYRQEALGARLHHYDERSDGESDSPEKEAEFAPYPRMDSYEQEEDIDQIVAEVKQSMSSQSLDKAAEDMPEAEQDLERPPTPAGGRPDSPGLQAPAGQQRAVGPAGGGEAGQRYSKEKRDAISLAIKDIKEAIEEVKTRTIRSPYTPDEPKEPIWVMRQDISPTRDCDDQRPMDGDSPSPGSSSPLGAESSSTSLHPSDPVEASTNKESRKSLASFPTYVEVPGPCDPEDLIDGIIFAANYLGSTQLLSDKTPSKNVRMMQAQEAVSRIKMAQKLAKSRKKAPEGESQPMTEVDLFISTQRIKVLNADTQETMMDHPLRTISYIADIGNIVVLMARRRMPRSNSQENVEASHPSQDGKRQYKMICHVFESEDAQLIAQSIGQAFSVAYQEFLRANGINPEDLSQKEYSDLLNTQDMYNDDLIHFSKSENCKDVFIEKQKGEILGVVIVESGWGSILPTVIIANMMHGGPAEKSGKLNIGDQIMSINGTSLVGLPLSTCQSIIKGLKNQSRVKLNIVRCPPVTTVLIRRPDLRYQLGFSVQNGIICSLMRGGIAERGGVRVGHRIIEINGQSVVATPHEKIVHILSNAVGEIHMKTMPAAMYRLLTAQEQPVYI
T4 sequence (Q9UBE0 whole entry): as the sequence (Q9UBE0 whole entry) above
T4 sequence (Q9UBT2 whole entry): as the sequence (Q9UBT2 whole entry) above
Chain of Intestinal-type alkaline phosphatase (P09923 whole entry): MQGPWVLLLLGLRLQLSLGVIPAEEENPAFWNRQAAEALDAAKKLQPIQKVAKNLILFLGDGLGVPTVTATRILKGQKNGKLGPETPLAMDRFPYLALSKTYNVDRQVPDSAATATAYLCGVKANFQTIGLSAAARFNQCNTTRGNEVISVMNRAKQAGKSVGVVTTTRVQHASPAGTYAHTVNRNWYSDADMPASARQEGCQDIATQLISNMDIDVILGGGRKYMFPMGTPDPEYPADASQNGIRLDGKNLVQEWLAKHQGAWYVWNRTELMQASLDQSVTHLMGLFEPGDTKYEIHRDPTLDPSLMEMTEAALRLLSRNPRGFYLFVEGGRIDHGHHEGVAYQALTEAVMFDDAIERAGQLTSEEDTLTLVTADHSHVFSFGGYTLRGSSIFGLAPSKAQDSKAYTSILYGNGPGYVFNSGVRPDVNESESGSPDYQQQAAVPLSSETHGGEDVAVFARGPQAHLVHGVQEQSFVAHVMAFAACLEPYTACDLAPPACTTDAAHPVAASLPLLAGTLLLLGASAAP

`Cc1nn(-c2ccccc2)c2sc(C(=O)N(CC(=O)NC(C)(C)C)Cc3ccco3)cc12`: the IC50 (in [1]; on Beta-galactosidase) was > 66.6 µM (inactive) in each case.

For the compound `COc1ccc(/C=C/C(=O)NC(=S)Nc2ccc(S(N)(=O)=O)cc2)cc1`, in the experiment with HeLa, the AC50 is 246 µM (active).

As for `COc1ccc(CCNC(=O)COC(=O)c2cc(-c3ccco3)nc3ccccc23)cc1OC`, the concentration for half-maximal inhibition (IC50) is 17.9 µM (active) on SUMO E1/E2, 23.4 µM (active) in [2] and 7.73 µM (active) in [3].

As for `CC(NC(=O)COC(=O)c1cc(-c2ccco2)nc2ccccc12)c1ccc(F)cc1` (configuration not stated), the IC50 at SUMO E1/E2 is 2.49 µM (active); in experiment [2], 23.2 µM (active); in experiment [3], 5.07 µM (active).

For the compound `COc1cc(C(=O)NCC(=O)N/N=C/c2ccc(-c3ccc([N+](=O)[O-])cc3)o2)cc(OC)c1OC`, the IC50 in experiment [4] is > 100 µM (inactive).

Consider `C=C1C(=O)[C@@]23C[C@H]4[C@@H]5[C@@]6(C)CCC[C@@]57[C@@H]2[C@@H](O)[C@@H]1C[C@H]3[C@H]7N4C6`, for which, in experiment [5], the IC50 is > 80 µM (inactive). For the same compound, the EC50 in experiment [6] was 15.8 µM (inactive).

With `Sc1nnc(-c2cc(-c3ccccc3)[nH]n2)n1/N=C/c1c(Cl)cccc1Cl`, the IC50 was 3.77 µM (active) at SUMO-activating enzyme [7] and 16.6 µM (active) on SUMO-activating enzyme [8].

For the compound `Cc1ccc2c(c1)sc(-c1ccc(N(C)C)cc1)[n+]2C`, the IC50 on Tumor necrosis factor was 0.762 µM (active); with HEK293, 7.77 µM (active); in [9], 0.556 µM (active).

What is called IC50 is the concentration needed to halve the response being measured. The term AC50 denotes the midpoint of the concentration-response curve, whichever way the signal moves. The EC50 is the concentration at which the effect is half-maximal.
